# Target: T1, FAAH (Fatty Acid Amide Hydrolase) (Mus musculus, UniProt O08914)
# T1 construct: Membrane homogenates are prepared at the time of use by homogenizing the tissues in a Polytron; from tissue; host or cells: mouse brain (minus the cerebellum), membrane homogenate
# T1 sequence (O08914 1-579): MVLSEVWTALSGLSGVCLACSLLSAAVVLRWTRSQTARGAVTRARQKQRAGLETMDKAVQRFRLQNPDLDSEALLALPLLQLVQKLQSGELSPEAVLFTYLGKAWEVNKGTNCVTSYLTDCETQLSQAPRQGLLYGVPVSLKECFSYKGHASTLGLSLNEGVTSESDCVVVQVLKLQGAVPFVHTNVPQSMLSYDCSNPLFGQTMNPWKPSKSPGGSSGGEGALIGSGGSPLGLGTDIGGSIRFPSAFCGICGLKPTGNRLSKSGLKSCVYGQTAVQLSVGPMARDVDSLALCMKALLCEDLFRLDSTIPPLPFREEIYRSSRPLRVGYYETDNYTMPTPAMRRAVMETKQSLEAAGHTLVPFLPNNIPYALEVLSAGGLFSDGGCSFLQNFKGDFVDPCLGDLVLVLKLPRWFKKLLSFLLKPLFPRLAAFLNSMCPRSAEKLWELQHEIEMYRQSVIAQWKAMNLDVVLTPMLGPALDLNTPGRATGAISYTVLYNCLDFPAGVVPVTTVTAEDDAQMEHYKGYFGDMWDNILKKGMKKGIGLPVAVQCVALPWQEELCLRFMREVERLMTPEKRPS
# Assay: Radioenzymatic FAAH inhibition assay (hydrolysis of anandamide [ethanolamine 1-3H]) in mouse brain membrane homogenates
# Type: biochemical
# Conditions: mouse brain membrane homogenate; anandamide 10 μM; 15 minutes at 25° C.; read-out: IC50 (concentration inhibiting by 50% the control enzyme activity of FAAH)
# Protocol: The compounds of the invention were subjected to pharmacological tests permitting determination of their inhibitory effect on the enzyme FAAH (Fatty Acid Amide Hydrolase).
# Accordingly, mouse brains (minus the cerebellum) are removed and stored at −80° C. Membrane homogenates are prepared at the time of use by homogenizing the tissues in a Polytron in a 10 mM Tris-HCl buffer (pH 8.0) containing 150 mM NaCl and 1 mM EDTA. The enzyme reaction is subsequently conducted in 70 μl of buffer containing bovine serum albumin without fatty acids (1 mg/ml). In succession, the test compounds, at various concentrations, anandamide [ethanolamine 1-^3H] (specific activity: 15-20 Ci/mmol) diluted to 10 μM with cold anandamide, and the membrane preparation (400 μg of frozen tissue per assay) are added. After 15 minutes at 25° C. the enzyme reaction is terminated by adding 140 μl of chloroform/methanol (2:1). The mixture is stirred for 10 minutes and then centrifuged for 15 minutes at 3500 g. An aliquot (30 μl) of the aqueous phase containing the ethanolamine [1-^3H] is counted by liquid scintillation.
row,IC50 [nM],Compound
1,470,"NC(=O)COC(=O)NCCCCOc1cccc2ccccc12 [Compound 58, 2-amino-2-oxoethyl [4-(1-naphthalenyloxy]butyl]-carbamate]"

# Tested on: not given
# Assay: not given
# Conditions: not given
row,melting point [°C],Compound
1,204 to 206,"N#Cc1ccc(OCCNC(=O)OCC(N)=O)cc1 [Compound 11, 2-amino-2-oxoethyl (2-[(4-cyanophenyl)oxy]ethyl)-carbamate]"
2,161 to 163,"NC(=O)COC(=O)N1CCC(COc2cccc3ccccc23)C1 (centres unmarked) [Compound 83, 2-amino-2-oxoethyl 3-[(1-naphthalenyloxy)methyl]-1-pyrrolidinecarboxylate]"
3,101 to 103,"CNC(=O)COC(=O)N1CCC(CCOc2ccc(Br)cc2)CC1 [Compound 168, 2-(methylamino)-2-oxoethyl 4-{2-[(4-bromophenyl)-oxy]ethyl}-1-piperidinecarboxylate]"
4,179 to 181,"NC(=O)COC(=O)N1CCC(CCOc2ccc3ccncc3c2)CC1 [Compound 183, 2-amino-2-oxoethyl 4-[2-(7-isoquinolinyloxy)ethyl]-1-piperidinecarbamate]"
5,80 to 82,"NC(=O)COC(=O)NCCCCOc1cccc2ccccc12 [Compound 58, 2-amino-2-oxoethyl [4-(1-naphthalenyloxy]butyl]-carbamate]"
6,147 to 149,"CNC(=O)COC(=O)NCCOc1ccc(Cl)cc1 [Compound 1, 2-(methylamino)-2-oxoethyl{2-[(4-chlorophenyl)-oxy]ethyl}carbamate]"
7,104 to 106,"CNC(=O)COC(=O)N1CCC(CCOc2ccc(-c3ccc(Cl)cc3)cc2)CC1 [Compound 186, 2-(methylamino)-2-oxoethyl 4-{2-[(4′-chloro-4-biphenyl)oxy]ethyl}-1-piperidinecarboxylate]"
8,117 to 119,"CNC(=O)COC(=O)N1CCC(Oc2ccc(-c3ccc(F)cc3)cc2)CC1 [Compound 85, 2-(methylamino)-2-oxoethyl 4-[(4′-fluoro-4-biphenyl)-oxy]-1-piperidinecarboxylate]"
9,135 to 136,"NC(=O)COC(=O)N1CCC(COc2cccc3ccccc23)CC1 [Compound 137, 2-amino-2-oxoethyl 4-[(1-naphthalenyloxy)methyl]-1-piperidinecarboxylate]"
10,197 to 199,"CNC(=O)COC(=O)N1CCC(COc2ccc(-c3ccc(C(F)(F)F)cc3)cc2)CC1 [Compound 154, 2-(methylamino)-2-oxoethyl 4-{[(4′-(trifluoromethyl)-4-biphenyl)oxy]methyl}-1-piperidinecarboxylate]"
11,137 to 139,"NC(=O)COC(=O)N1CCC(COc2ccc3cccnc3c2)CC1 [Compound 148, 2-amino-2-oxoethyl 4-[(7-quinolinyloxy)methyl]-1-piperidinecarboxylate]"
12,163 to 165,"CNC(=O)COC(=O)N1CCC(COc2ccc(Br)cc2)CC1 [Compound 120, 2-(methylamino)-2-oxoethyl 4-{[(4-bromophenyl)oxy]-methyl}-1-piperidinecarboxylate]"

# Tested on: male OF1 mice
# Assay: Analgesia test: PBQ (phenylbenzoquinone)-induced abdominal stretches
# Type: in vivo, mouse
# Conditions: oral, dose of 1 mg/kg, at 2 hours, PBQ 2 mg/kg i.p.
# Protocol: The in vivo activity of the compounds of the invention was evaluated in an analgesia test.
# Accordingly, intraperitoneal (i.p.) administration of PBQ (phenylbenzoquinone, 2 mg/kg in a 0.9% sodium chloride solution containing 5% of ethanol) to male OF1 mice weighing 25 to 30 g causes abdominal stretches, on average 30 twists or contractions during the period from 5 to 15 minutes after injection. The test compounds are administered orally in suspension in Tween 80 at 0.5%, 60 minutes or 120 minutes before the administration of PBQ. […] For example, compound 58 of the table reduces by 51% the number of stretches induced by PBQ, at a dose of 1 mg/kg at 2 hours.
row,Compound,reduction of the number of stretches induced by PBQ [%]
1,"NC(=O)COC(=O)NCCCCOc1cccc2ccccc12 [Compound 58, 2-amino-2-oxoethyl [4-(1-naphthalenyloxy]butyl]-carbamate]",51

# — patent US8026258B2, “Aryloxyalkylcarbamate-type derivatives, preparation method thereof and use of same in therapeutics” (Sanofi-Aventis, priority 2004, dated 2011)
